This note sets out measurements from publication PMC6689975, “Novel Cell Wall Antifungals Reveal a Special Synergistic Activity in pbr1 Mutants Resistant to the Glucan Synthesis Antifungals Papulacandins and Echinocandins” (Frontiers in Microbiology, 2019).

Values after ≈ are worked out from the molar mass of the structure shown. Bounds are passed on as bounds.

One assay has as its system C. albicans wild-type. Put plainly: microbe, parasite or virus in culture. Further details: species or system whole yeast cells; micro-culture broth dilution MIC in YES at 30 C, turbidity, complete growth inhibition. The settings on record: Candida albicans; YES medium, C. albicans strain f.
For assay [1], the system named is Candida albicans C. a.^g (Table 6). In words: microbe, parasite or virus in culture. On the set-up: species or system yeast; micro tube dilution MIC in YES (± 1.2 M sorbitol), complete growth inhibition by turbidity. The settings on record: 48 h, read-out: MIC. The method in brief:
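YEPD/YES ± 1.2 M sorbitol; 2 X 10^6 cells/ml early log phase; cpd 0–200 μg/ml, 2% DMSO; 30°C, roller; turbidity 24 h + 48 h; MIC = no visible growth; n ≥ 3.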

In turn, `O=c1oc2ccc3ccccc3c2cc1-c1ccccc1CO` [compound 12] gave an MIC against C. albicans wild-type of more than 200 µg/mL.

On to `CC[C@H](C)C[C@H](C)CCCCCCCCC(=O)N[C@H]1C[C@@H](O)[C@@H](NCCN)NC(=O)[C@@H]2[C@@H](O)CCN2C(=O)[C@H]([C@H](O)CCN)NC(=O)[C@H]([C@H](O)[C@@H](O)c2ccc(O)cc2)NC(=O)[C@@H]2C[C@@H](O)CN2C(=O)[C@H]([C@@H](C)O)NC1=O` [caspofungin], for which, in assay [1], the MIC came to 50 µg/mL (≈ 45.7 µM).

The compound `O=c1oc2ccccc2cc1-c1ccccc1CO` [compound 15] registered an MIC with C. albicans wild-type of more than 200 µg/mL.
